Source: US20200017495A1, “NOVEL HETEROCYCLIC COMPOUNDS AND THEIR USE IN PREVENTING OR TREATING BACTERIAL INFECTIONS” (priority 2017, published 2020)
Where two headings read alike, the source gives them in different places.

What was measured:
Assay type in all cases: cell-based
[1] = test system: Enterobacter aerogenes (EAE) isolates; assay: MIC of compounds alone and combined with antibacterials, broth microdilution (CLSI); details: Klebsiella aerogenes, alone, read-out: MIC
Description: (§1) Method 2: MIC of Compounds Alone and Combined with Antibacterials Against Bacterial Isolates
(§2) Compounds of the present invention were assessed against genotyped bacterial strains (Table 3, 4) alone or in combination with an antibacterial (Table 2). […] Log phase bacterial suspensions were adjusted to a final density of 5.10^5 CFU/mL in cation-adjusted Mueller-Hinton broth (ca-MHB; Becton-Dickinson and Company) and added to each well (98 μL). Microplates were incubated for 16-20 h at 35° C. in ambient air. The MIC of the compounds was defined as the lowest concentration of said compounds that prevented bacterial growth as read by visual inspection. The MIC of ATB at each compound concentration was defined as the lowest concentration of ATB that prevented bacterial growth as read by visual inspection.

[2] = test system: Klebsiella oxytoca (KOX) isolates; assay: as above; details: Klebsiella oxytoca, alone, read-out: MIC
Description: as §1, §2

[3] = test system: Proteus mirabilis (PMI) isolates; assay: microbe, parasite or virus in culture
Description: as §1, §2

[4] = test system: Salmonella typhimurium (STY) isolates; assay: MIC of compounds alone and combined with antibacterials, broth microdilution (CLSI)
Description: as §1
(§3) Compounds of the present invention were assessed against genotyped bacterial strains (Table 3, 4) alone or in combination with an antibacterial (Table 2). […]. Briefly, compounds alone according to the invention were prepared in DMSO and spotted (2 μL each) on sterile polystyrene plates (Corning, 3788). Combinations of compounds and antibiotics dilutions were prepared in DMSO and spotted (1 μL each) on sterile polystyrene plates (Corning, 3788). Log phase bacterial suspensions were adjusted to a final density of 5.10^5 CFU/mL in cation-adjusted Mueller-Hinton broth (ca-MHB; Becton-Dickinson and Company) and added to each well (98 μL). Microplates were incubated for 16-20 h at 35° C. in ambient air. The MIC of the compounds was defined as the lowest concentration of said compounds that prevented bacterial growth as read by visual inspection. The MIC of ATB at each compound concentration was defined as the lowest concentration of ATB that prevented bacterial growth as read by visual inspection.

[5] = test system: Providencia stuartii (PST) isolates; assay: as above
Description: as §1, §3

## O=C1N2CC(n3cccn3)=CC(C2)N1OC(F)(F)C(=O)[O-].[Li+] (centres unmarked) [AF3]
[1]; EAE 49469
  MIC: 8 µg/mL
[1]; EAE 200261
  MIC: 8 µg/mL
[1]; EAE UFR199
  MIC: 16 µg/mL
[1]; EAE UFR201
  MIC: 8 µg/mL
[1]; EAE UFR202
  MIC: 32 µg/mL
[1]; EAE UFR207
  MIC: 8 µg/mL
[1]; EAE UFR213
  MIC: 16 µg/mL
[2]; KOX UFR21
  MIC: > 32 µg/mL
[2]; KOX UFR173
  MIC: 16 µg/mL
[2]; KOX UFR223
  MIC: 8 µg/mL
[2]; KOX UFR224
  MIC: 8 µg/mL
[3]; Proteus mirabilis, PMI UFR82, alone, read-out: MIC
  MIC: 4 µg/mL
[3]; Proteus mirabilis, PMI UFR126, alone, read-out: MIC
  MIC: 4 µg/mL
[3]; Proteus mirabilis, PMI UFR127, alone, read-out: MIC
  MIC: 8 µg/mL
[3]; Proteus mirabilis, PMI UFR128, alone, read-out: MIC
  MIC: 4 µg/mL
[3]; Proteus mirabilis, PMI UFR129, alone, read-out: MIC
  MIC: 4 µg/mL
[3]; Proteus mirabilis, PMI UFR130, alone, read-out: MIC
  MIC: 4 µg/mL
[3]; Proteus mirabilis, PMI UFR133, alone, read-out: MIC
  MIC: 4 µg/mL
[3]; Proteus mirabilis, PMI UFR237, alone, read-out: MIC
  MIC: 8 µg/mL
[3]; Proteus mirabilis, strain PMI UFR131, compound alone, read-out: MIC
  MIC: 4 µg/mL
[3]; Proteus mirabilis, strain PMI UFR132, compound alone, read-out: MIC
  MIC: 8 µg/mL
[4]; Salmonella enterica, TYPHIMURIUM, STY S3371, alone, read-out: MIC
  MIC: 8 µg/mL
[5]; Providencia stuartii, PST UFR94, alone, read-out: MIC
  MIC: 16 µg/mL
[5]; Providencia stuartii, PST UFR95, alone, read-out: MIC
  MIC: > 32 µg/mL
[5]; Providencia stuartii, PST UFR120, alone, read-out: MIC
  MIC: 8 µg/mL
[5]; Providencia stuartii, PST UFR121, alone, read-out: MIC
  MIC: 8 µg/mL
[5]; Providencia stuartii, PST UFR122, alone, read-out: MIC
  MIC: 4 µg/mL
[5]; Providencia stuartii, PST UFR123, alone, read-out: MIC
  MIC: 4 µg/mL
[5]; Providencia stuartii, PST UFR124, alone, read-out: MIC
  MIC: 8 µg/mL
[5]; Providencia stuartii, PST UFR125, alone, read-out: MIC
  MIC: 4 µg/mL
[5]; Providencia stuartii, PST UFR235, alone, read-out: MIC
  MIC: 16 µg/mL
[5]; Providencia stuartii, strain PST UFR98, compound alone, read-out: MIC
  MIC: 16 µg/mL

## CC(C)(O/N=C(\C(=O)N[C@@H]1C(=O)N2C(C(=O)[O-])=C(C[n+]3ccccc3)CS[C@H]12)c1csc(N)n1)C(=O)O [CAZ, Ceftazidime]
[3]; PMI UFR82, AF2 @ 8 μg/mL
  MIC ATB in combination: <0.25 µg/mL
[3]; PMI UFR82, AF3 @ 8 μg/mL
  MIC ATB in combination: <0.25 µg/mL
[3]; PMI UFR126, AF2 @ 8 μg/mL
  MIC ATB in combination: <0.25 µg/mL
[3]; PMI UFR126, AF3 @ 8 μg/mL
  MIC ATB in combination: <0.25 µg/mL
[3]; PMI UFR127, AF2 @ 8 μg/mL
  MIC ATB in combination: <0.25 µg/mL
[3]; PMI UFR127, AF3 @ 8 μg/mL
  MIC ATB in combination: <0.25 µg/mL
[3]; PMI UFR128, AF2 @ 8 μg/mL
  MIC ATB in combination: <0.25 µg/mL
[3]; PMI UFR128, AF3 @ 8 μg/mL
  MIC ATB in combination: <0.25 µg/mL
[3]; PMI UFR129, AF2 @ 8 μg/mL
  MIC ATB in combination: <0.25 µg/mL
[3]; PMI UFR129, AF3 @ 8 μg/mL
  MIC ATB in combination: <0.25 µg/mL
[3]; PMI UFR130, AF2 @ 8 μg/mL
  MIC ATB in combination: <0.25 µg/mL
[3]; PMI UFR130, AF3 @ 8 μg/mL
  MIC ATB in combination: <0.25 µg/mL
[3]; PMI UFR133, AF2 @ 8 μg/mL
  MIC ATB in combination: <0.25 µg/mL
[3]; PMI UFR133, AF3 @ 8 μg/mL
  MIC ATB in combination: <0.25 µg/mL
[3]; PMI UFR237, AF2 @ 8 μg/mL
  MIC ATB in combination: <0.25 µg/mL
[3]; PMI UFR237, AF3 @ 8 μg/mL
  MIC ATB in combination: <0.25 µg/mL
[3]; strain PMI UFR82, genotype CMY-2
  MIC: 4 µg/mL
[3]; strain PMI UFR120, genotype TEM-1, SHV-11, CTX-M-14
  MIC: <=0.25 μg/mL
[3]; strain PMI UFR121, genotype TEM-1, TEM-52
  MIC: 16 µg/mL
[3]; strain PMI UFR122, genotype TEM-1, CTX-M-15
  MIC: 1 µg/mL
[3]; strain PMI UFR123, genotype CTX-M-1
  MIC: 2 µg/mL
[3]; strain PMI UFR124, genotype CTX-M-2
  MIC: 2 µg/mL
[3]; strain PMI UFR125, genotype CTX-M-71
  MIC: 2 µg/mL
[3]; strain PMI UFR126, genotype TEM-2, PER-1
  MIC: >128 µg/mL
[3]; strain PMI UFR127, genotype VEB-1
  MIC: >128 µg/mL
[3]; strain PMI UFR128, genotype VEB-1, OXA-10
  MIC: >128 µg/mL
[3]; strain PMI UFR129, genotype TEM-1, VEB-6
  MIC: >128 µg/mL
[3]; strain PMI UFR130, genotype CMY-2
  MIC: 4 µg/mL
[3]; strain PMI UFR131, genotype CMY-16, OXA-1, OXA-10, NDM-1, ArmA
  MIC: >128 µg/mL
[3]; strain PMI UFR131, with AF2 @ 8 μg/mL
  MIC ATB in combination: <0.25 µg/mL
[3]; strain PMI UFR131, with AF3 @ 8 μg/mL
  MIC ATB in combination: <0.25 µg/mL
[3]; strain PMI UFR132, genotype VEB-6, DHA-1, NDM-1, AphA6, AacA4
  MIC: >128 µg/mL
[3]; strain PMI UFR132, with AF2 @ 8 μg/mL
  MIC ATB in combination: <0.25 µg/mL
[3]; strain PMI UFR132, with AF3 @ 8 μg/mL
  MIC ATB in combination: <0.25 µg/mL
[3]; strain PMI UFR133, genotype OXA-23
  MIC: <=0.25 μg/mL
[3]; strain PMI UFR237, genotype VEB-6
  MIC: >128 µg/mL
[4]; STY S3371, AF2 @ 8 μg/mL
  MIC ATB in combination: <0.25 µg/mL
[4]; STY S3371, AF3 @ 8 μg/mL
  MIC ATB in combination: <0.25 µg/mL
[4]; strain STY S3371, genotype OXA-1
  MIC: 0.5 µg/mL
[5]; PST UFR94, AF2 @ 8 μg/mL
  MIC ATB in combination: <=0.25 μg/mL
[5]; PST UFR94, AF3 @ 8 μg/mL
  MIC ATB in combination: <=0.25 μg/mL
[5]; PST UFR95, AF2 @ 8 μg/mL
  MIC ATB in combination: <=0.25 μg/mL
[5]; PST UFR95, AF3 @ 8 μg/mL
  MIC ATB in combination: <=0.25 μg/mL
[5]; PST UFR120, AF2 @ 8 μg/mL
  MIC ATB in combination: <0.25 µg/mL
[5]; PST UFR120, AF3 @ 8 μg/mL
  MIC ATB in combination: <0.25 µg/mL
[5]; PST UFR121, AF2 @ 8 μg/mL
  MIC ATB in combination: <0.25 µg/mL
[5]; PST UFR121, AF3 @ 8 μg/mL
  MIC ATB in combination: <0.25 µg/mL
[5]; PST UFR122, AF2 @ 8 μg/mL
  MIC ATB in combination: <0.25 µg/mL
[5]; PST UFR122, AF3 @ 8 μg/mL
  MIC ATB in combination: <0.25 µg/mL
[5]; PST UFR123, AF2 @ 8 μg/mL
  MIC ATB in combination: <=0.25 μg/mL
[5]; PST UFR123, AF3 @ 8 μg/mL
  MIC ATB in combination: <0.25 µg/mL
[5]; PST UFR124, AF2 @ 8 μg/mL
  MIC ATB in combination: <=0.25 μg/mL
[5]; PST UFR124, AF3 @ 8 μg/mL
  MIC ATB in combination: <0.25 µg/mL
[5]; PST UFR125, AF2 @ 8 μg/mL
  MIC ATB in combination: <=0.25 μg/mL
[5]; PST UFR125, AF3 @ 8 μg/mL
  MIC ATB in combination: <0.25 µg/mL
[5]; PST UFR235, AF2 @ 8 μg/mL
  MIC ATB in combination: <=0.25 μg/mL
[5]; PST UFR235, AF3 @ 8 μg/mL
  MIC ATB in combination: <=0.25 μg/mL
[5]; strain PST UFR94, genotype CTX-M-14
  MIC: 1 µg/mL
[5]; strain PST UFR95, genotype TEM-24
  MIC: 64 µg/mL
[5]; strain PST UFR98, genotype TEM-1, CMY-6, OXA-1, NDM-1, RmtC
  MIC: >256 µg/mL
[5]; strain PST UFR98, with AF2 @ 8 μg/mL
  MIC ATB in combination: >128 µg/mL
[5]; strain PST UFR98, with AF3 @ 8 μg/mL
  MIC ATB in combination: <0.25 µg/mL
[5]; strain PST UFR235, genotype VEB-1
  MIC: >128 µg/mL
